Assay results from US20260184712A1, “Heterocyclic Compounds as ENT Inhibitors and Compounds for Use in the Treatment of Cancers” (iTeos Belgium SA, priority 2022, published 2026).

Tests used:
[1] = test system: stimulated primary human T cells; experiment: T cell proliferation assay, Condition B (X-VIVO15, 2% HSA and 0.1% AAG); format: cell-based; conditions: Condition B: X-VIVO15 medium containing HSA and α1-Acid Glycoprotein, anti-CD3/anti-CD28 beads, ATP, 4 days, CFSE-lo T cells
Method in brief: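 CFSE-labelled CD3+ T cells from healthy donors (2×10^4/well) in X-VIVO15 with 2% HSA and 0.1% AAG were stimulated with anti-CD3/CD28 beads. After 30 min pre-incubation with inhibitor, ATP was added and cells were cultured 4 days at 37° C. Flow cytometry gave % CFSE^lo cells, with IC50/IC90 and pICF from curve fits.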

[2] = test system: stimulated primary human T cells; experiment: T cell proliferation assay, Condition A (X-VIVO15); format: cell-based; conditions: Condition A: X-VIVO15 medium, anti-CD3/anti-CD28 beads, ATP, 4 days, CFSE-lo T cells
Method in brief: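 CFSE-labelled human CD3+ T cells (2×10^4/well) in serum-free X-VIVO15 were activated with anti-CD3/CD28 beads (1 bead:2 cells), pre-incubated 30 min with inhibitor, then cultured with 100 uM ATP for 4 days at 37 °C. Flow cytometry measured %CFSE^lo cells, and IC50/IC90 came from log-concentration curve fits.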

[3] = biological target: T1, human ENT1 (Homo sapiens, UniProt Q99808); experiment: ENT1 binding assay (competition with Sahenta-DY647 on JAR cells); conditions: competition with SAHENTA-DY647 binding; IC50 categorized; read-out: Binding Assay IC50
T1 construct: JAR cells expressing ENT1 were purchased from ATCC; host or cells: JAR cells
T1 sequence (Q99808 1-456): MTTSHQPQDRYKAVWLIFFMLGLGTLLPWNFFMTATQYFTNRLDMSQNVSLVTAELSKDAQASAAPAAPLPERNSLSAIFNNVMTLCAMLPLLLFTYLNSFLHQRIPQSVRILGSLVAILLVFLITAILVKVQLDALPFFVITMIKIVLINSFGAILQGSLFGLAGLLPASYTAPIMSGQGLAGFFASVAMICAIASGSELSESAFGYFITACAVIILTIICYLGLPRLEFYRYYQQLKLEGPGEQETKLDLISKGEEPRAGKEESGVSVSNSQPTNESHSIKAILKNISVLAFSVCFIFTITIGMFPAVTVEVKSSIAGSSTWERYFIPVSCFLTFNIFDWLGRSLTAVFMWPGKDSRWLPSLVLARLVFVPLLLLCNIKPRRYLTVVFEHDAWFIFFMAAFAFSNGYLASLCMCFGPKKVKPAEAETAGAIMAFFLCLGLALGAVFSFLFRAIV
Method in brief: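 Whole-cell competition on JAR cells (native ENT1): 50,000 cells pre-incubated 30 min at 4 °C with compound in HBSS/10 mM Hepes/0.1% BSA, then 100 nM Sahenta-DY647 added for 30 min at 4 °C. After washing, fluorescence (Ex 630/Em 670 nm) read; IC50 from sigmoidal fit, averaged as pIC50.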

[4] = biological target: T2, Human ENT2 (Homo sapiens, UniProt Q14542); experiment: Adenosine uptake assay, ENT2-mediated transport in MDCKII cells; format: cell-based; conditions: MDCKIIENT2-LV cells, probe adenosine 0.5 μM, pre-incubation 30 min, incubation 10 min
T2 construct: expressed in transfected cells
T2 sequence (Q14542 1-456): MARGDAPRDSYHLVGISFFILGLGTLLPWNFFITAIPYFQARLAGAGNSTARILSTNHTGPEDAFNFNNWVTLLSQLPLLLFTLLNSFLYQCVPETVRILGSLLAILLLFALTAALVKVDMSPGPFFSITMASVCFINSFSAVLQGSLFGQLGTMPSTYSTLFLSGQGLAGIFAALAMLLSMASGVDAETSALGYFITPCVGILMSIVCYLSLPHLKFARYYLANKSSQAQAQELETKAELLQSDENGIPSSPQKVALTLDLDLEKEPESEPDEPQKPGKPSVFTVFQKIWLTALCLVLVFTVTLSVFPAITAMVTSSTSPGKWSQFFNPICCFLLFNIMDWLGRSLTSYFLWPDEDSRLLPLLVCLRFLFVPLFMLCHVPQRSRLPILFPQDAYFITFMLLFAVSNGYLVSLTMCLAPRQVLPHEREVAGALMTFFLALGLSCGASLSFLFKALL
Procedure: The goal of this study was to determine the potency and selectivity of ENT1 inhibitors by measuring ENT1 and ENT2-mediated transport using an in vitro cellular uptake assay.
Human ENT1 and ENT2 transporters were stably expressed in Madin-Darby Canine Kidney II (MDCKII) cells via transduction. Cell lines overexpressing the relevant ENT1 or ENT2 molecules were preincubated with a dose range of the relevant compound for 30 minutes before introduction of the specific substrate at the concentration indicated in the Table assay parameters below. The transporter assay was conducted for the time specified in the Table assay parameters before the specific uptake of the substrate into the cells was quantified. Specific uptake was determined by comparing the uptake from the cells treated with the relevant compounds and the uptake by cells not overexpressing the transporter in question.
Specific uptake for each concentration of the test sample was normalized to the DMSO control value to generate a relative accumulation value (or relative transporter activity). Data were plotted against the log molar concentration of the test reagent used. IC50 values were generated with Prism version 9.4.1 and the following function: log(inhibitor) vs. response—Variable slope (four parameters).

| Compound | IC50 ([1]; Homo sapiens, T-cell, 96 h) [nM] | IC50 ([2]; Homo sapiens, T-cell, 96 h) [nM] | IC50 [3] [nM] | IC50 [4] [nM] | IC50 [1] [nM] | IC50 [2] [nM] |
| --- | --- | --- | --- | --- | --- | --- |
| C[C@H]1O[C@@H](n2cnc3c(OCc4ccc(OC(F)F)cc4)nc(N)nc32)[C@H](O)[C@@H]1O [Compound 190] | > 500 | 1 to 20 | 20 to 500 | – | – | – |
| Cc1cc(COc2ncnc3c2ncn3[C@@H]2O[C@H](C)[C@@H](O)[C@H]2O)ccc1[N+](=O)[O-] [Compound 193] | > 500 | 20 to 500 | 20 to 500 | – | – | – |
| C[C@H]1O[C@@H](n2cnc3c(N4CCc5cc([N+](=O)[O-])ccc5C4)ncnc32)[C@H](O)[C@@H]1O [Compound 196] | > 500 | 1 to 20 | 20 to 500 | – | – | – |
| NC(=O)COC[C@H]1O[C@@H](n2cnc3c(OCCc4ccc([N+](=O)[O-])cc4)ncnc32)[C@H](O)[C@@H]1O [Compound 199] | > 500 | 20 to 500 | 20 to 500 | – | – | – |
| C[C@H]1O[C@@H](n2cnc3c(OCc4cc(F)c(F)c(F)c4)ncnc32)[C@H](O)[C@@H]1O [Compound 200] | > 500 | 1 to 20 | 20 to 500 | – | – | – |
| O=[N+]([O-])c1ccc(CCOc2ncnc3c2ncn3[C@@H]2O[C@H](COCCO)[C@@H](O)[C@H]2O)cc1 [Compound 203] | > 500 | 1 to 20 | 20 to 500 | – | – | – |
| COc1cc(C(=O)OCCCN2CCCN(CCCOC(=O)c3cc(OC)c(OC)c(OC)c3)CC2)cc(OC)c1OC [Dilazep, dilazep, reference compound] | 20 to 500 | 1 to 20 | – | > 1000 | – | – |
| O=[N+]([O-])c1ccc(CSc2ncnc3c2ncn3[C@@H]2O[C@H](CO)[C@@H](O)[C@H]2O)cc1 [NBMPR, reference compound] | – | – | – | > 1000 | 20 to 500 | 1 to 20 |
